Test results: US11884650B2, “Substituted heterocyclic compounds” (BRISTOL-MYERS SQUIBB COMPANY, priority 2021, dated 2024)

What was measured:
[1] = Brain Penetration In Vivo Assay; set-up: species or system C57BL6 wild-type mice; settings: C57BL6, brain and plasma, 10 mg/kg, mouse, 10 mpk, po, read-out: Ratio of exposure in brain to plasma
Protocol: Brain Penetration In Vivo Assay
A pharmacokinetic study was performed using C57BL6 wild-type mice (n=3 per experiment) to determine brain and plasma exposure of compounds of the invention. The compound was administered orally in a solution of 5% ETHANOL; 90% PEG 300; 5% TPGS at 5 […] for a final concentration. of 10 mg/kg. Mice were euthanized 1 hour post-dose and plasma and brain were collected and frozen for analysis. Brain tissues were homogenized in a 1:1 volume of blank C57BL6 mouse plasma. Concentrations of the compound in plasma and brain homogenate were determined by LC-MS analysis.

[2] = test system: IFNα-induced pSTAT5 in human whole blood (CD3 positive population); assay: IFNα-Induced STAT Phosphorylation in Human Whole Blood; format: cell-based; settings: 1 h incubation with compound, 1000 U/mL IFNα A/D for 15 min, read-out: Human Whole blood IFNa pSTAT5 IC50
Protocol: IFNα-Induced STAT Phosphorylation in Human Whole Blood
After an hour long incubation with compound, human whole blood (drawn with ACD-A as anticoagulant) was stimulated with 1000 U/mL recombinant human IFNα A/D (R&D Systems 11200-2) for 15 min. The stimulation was stopped by adding Fix/Lyse buffer (BD 558049). Cells were stained with a CD3 FITC antibody (BD 555916), washed, and permeabilized on ice using Perm III buffer (BD 558050). Cells were then stained with an Alexa-Fluor 647 pSTAT5 (pY694) antibody (BD 612599) for 60 min prior to analysis on the iQue Plus. The amount of pSTAT5 expression was quantitated by median fluorescence intensity after gating on the CD3 positive population.

in vitro = settings: human, Caco-2, pH 7.4
Caco-2 cells = settings: human, Caco-2, 2 h, 3 μM, pH 7.4

| Compound | Kp at 1 h [1] | IC50 [2] [nM] | Papp A→B at 2 h, 3 μM (in vitro) [×10⁻⁶ cm/s] | efflux ratio at 2 h, 3 μM (in vitro) | Caco-2 AB (Caco-2 cells) [nm/s] |
| --- | --- | --- | --- | --- | --- |
| CCC(=O)c1cnc(NC(=O)C2CC2)cc1Nc1nccc(-c2cnn(C)n2)c1OC [Example 1, N-(4-((3-methoxy-4-(2-methyl-2H-1,2,3-triazol-4-yl)pyridin-2-yl)amino)-5-propionylpyridin-2-yl)cyclopropanecarboxamide] | 3.1 | 37 | 66.3 | 0.1 | – |
| CCC(=O)c1cnc(NC(=O)C2CC2)cc1Nc1nccc(-c2cnn(C3CC3)n2)c1OC [Example 2, N-(4-((3-methoxy-4-(2-cyclopropyl-2H-1,2,3-triazol-4-yl)pyridin-2-yl)amino)-5-propionylpyridin-2-yl)cyclopropanecarboxamide] | – | 400 | 18 | 0.2 | – |
| CCC(=O)c1cnc(NC(=O)C2CC2)cc1Nc1ccc(F)c(-c2cnn(C)n2)c1OC [Example 4, N-(4-((4-fluoro-2-methoxy-3-(2-methyl-2H-1,2,3-triazol-4-yl)phenyl)amino)-5-propionylpyridin-2-yl)cyclopropanecarboxamide] | – | 280 | 54.5 | 0.4 | – |
| N-(4-((3-fluoro-2-methoxy-3-(2-methyl-2H-1,2,3-triazol-4-yl)phenyl)amino)-5-propionylpyridin-2-yl)cyclopropanecarboxamide [Example 5] | – | 710 | – | – | 258 |
| N-(4-((3-methyl-2-methoxy-3-(2-methyl-2H-1,2,3-triazol-4-yl)phenyl)amino)-5-propionylpyridin-2-yl)cyclopropanecarboxamide [Example 6] | – | 770 | – | – | 152 |

Second part, led by results:

| Kp at 1 h [1] | IC50 [2] [nM] | Papp A→B at 2 h, 3 μM (in vitro) [×10⁻⁶ cm/s] | efflux ratio at 2 h, 3 μM (in vitro) | Compound | Caco-2 AB (Caco-2 cells) [nm/s] |
| --- | --- | --- | --- | --- | --- |
| 0.14 | – | – | – | CCC(=O)c1cnc(NC(=O)C2CC2)cc1Nc1nccc(-c2ncn(C)n2)c1OC [A, reference compound] | – |
| 0.05 | – | – | – | CCC(=O)c1cnc(NC(=O)C2CC2)cc1Nc1cccc(-c2ncn(C)n2)c1OC [B, reference compound] | – |
| 3 | 460 | 18.3 | 0.5 | CCC(=O)c1cnc(NC(=O)C2CC2)cc1Nc1cccc(-c2cnn(C)n2)c1OC [Example 3, N-(4-((2-methoxy-3-(2-methyl-2H-1,2,3-triazol-4-yl)phenyl)amino)-5-propionylpyridin-2-yl)cyclopropanecarboxamide] | – |
